Assay results: ChEMBL document CHEMBL1141953, “Synthesis and structure-activity relationships of novel benzene sulfonamides with potent binding affinity for bovine carbonic anhydrase II” (Bioorg Med Chem Lett, 2005)

These compounds were tested against Carbonic anhydrase 2 (Bos taurus, UniProt P00921) (assay: Displacement of DNSA from CAII in bovine erythrocytes).
Sequence of Carbonic anhydrase 2 (P00921 whole entry): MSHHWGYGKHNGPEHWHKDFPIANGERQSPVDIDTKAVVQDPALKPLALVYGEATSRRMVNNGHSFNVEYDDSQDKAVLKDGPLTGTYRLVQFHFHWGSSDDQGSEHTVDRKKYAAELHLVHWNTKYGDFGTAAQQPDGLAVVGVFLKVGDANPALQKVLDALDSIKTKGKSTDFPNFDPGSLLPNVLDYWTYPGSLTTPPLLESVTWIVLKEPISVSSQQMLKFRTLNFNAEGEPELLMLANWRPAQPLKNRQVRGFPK

| Ki [nM] | SMILES |
| --- | --- |
| 7.7 | C=CCCCOC(=O)c1ccc(S(N)(=O)=O)cc1 |
| 9.1 | NS(=O)(=O)c1ccc(C(=O)OC/C=C\CO)cc1 |
| 4.9 | NS(=O)(=O)c1ccc(C(=O)OC/C=C/COC(=O)c2ccc(S(N)(=O)=O)cc2)cc1 |
| 9.3 | NS(=O)(=O)c1ccc(C(=O)OC/C=C\COC(=O)c2ccc(S(N)(=O)=O)cc2)cc1 |
| 8.6 | C=CCOC(=O)c1ccc(S(N)(=O)=O)cc1 |
| 5.3 | NS(=O)(=O)c1ccc(C(=O)OC/C=C/CO)cc1 |

| SMILES | Ki [nM] |
| --- | --- |
| NS(=O)(=O)c1ccc(C(=O)OC/C=C/COC(=O)c2ccccc2)cc1 | 4.7 |
